Consider seven molecules from PMC4703859, “Efficient backbone cyclization of linear peptides by a recombinant asparaginyl endopeptidase” (Nature Communications, 2015).

In data set [1] the test system is rOaAEP1b. The experiment in a line: Cyclization assay of linear peptides followed by MALDI MS. It is filed as biochemical, Oldenlandia affinis. As for the experimental part: Linear target peptides (280 μM) were incubated with rOaAEP1b (12 μg ml^−1 total protein unless otherwise indicated) in activity buffer. The reaction was allowed to proceed for up to 22 h at room temperature and was analysed by matrix-assisted laser desorption/ionization MS (MALDI MS), RP-HPLC or NMR as appropriate.
To confirm the presence of cyclic product, R1 derivatives processed by rOaAEP1b were subsequently digested with endoGlu-C (25 μg ml^−1) in reaction buffer (50 mM Tris-HCl, 0.5 mM Glu–Glu, pH 8) such that the final dilution of the cyclization mix was 1:4. The reaction was allowed to proceed for 18 h at 37 °C before analysis by MALDI MS.
Cyclization of linear target peptides was monitored by MALDI MS. The reaction mixture (10–20 μl) was desalted using C18 zip tips and eluted in 4 μl 50% acetonitrile, 0.1% trifluoroacetic acid (TFA). A saturated MALDI matrix solution (α–cyano-4-hyroxycinnamic acid) prepared in 95% acetonitrile, 0.1% TFA was diluted 1:22 such that the final matrix solution comprised 90% acetonitrile, 0.1% TFA and 1 mM NH4H2PO4. Eluted samples were mixed 1:4 with the MALDI matrix, spotted onto a MALDI plate and analysed by an Ultraflex III TOF/TOF (Bruker) in positive reflector mode.

In data set [2] the test system is rOaAEP1b. As to the kind of experiment: Inhibition assay, enzyme activity against wt IQF peptide. It counts as biochemical, Oldenlandia affinis. The following applies: 40 min pre-incubation, wt IQF peptide 11 μM, 90 min. As for the experimental part: To investigate the impact of inhibitors on enzyme activity against the wt IQF peptide, rOaAEP1b (4.4 μg ml^–1 total protein) was incubated with the indicated concentration of E64, Ac-YVAD-CHO, pepstatin A and iodoacetamide for 40 min before addition to the substrate (11 μM). Enzyme activity against the wt IQF peptide was then assessed as described above.
Supplementary Figure 3: rOaAEP1b activity against the wt IQF peptide in the presence of protease inhibitors. rOaAEP1b (~4.4 µg ml-1 total protein) was allowed to cleave the wt IQF peptide (11 µM) and fluorescence intensity was recorded every minute for 90 min. The enzyme activity in the presence of inhibitors is reported relative to a no inhibitor control at the 90 min time point. Each data point represents the average of two technical replicates and error bars report the range.
(1 picture or pasted object on this page, not shown here)

For data set [3] the following is noted: assayed against a small substrate; cited from earlier work. As for the experimental part: The activity of rOaAEP1b against IQF peptides representing wt and mutant versions of the native kB1 C-terminal cleavage site was determined (Table 1; Supplementary Fig. 4a). […] This observation is consistent with the lack of cyclic product generated when the corresponding mutation was introduced in planta. Kinetic parameters (Vmax, Km and kcat) are reported where applicable (Table 1). The tur ...

Where a SMILES comes first, the peptide text is derived from it. [ ]: non-standard residue; d: D form. The star is where a group is joined. Sta = CC(C)C[C@H](N)[C@@H](O)CC(=O)O; Isovaleryl = CC(C)CC(=O)*

Regarding “VFAEFLPLFSKFGSRMHILK [R1, anti-malarial peptide structurally unrelated to cyclotides]”, the “processing by rOaAEP1b of R1 peptides lacking a full recognition sequence” value in the data set on rOaAEP1b [1] (22 h, MALDI MS) is “No processing”. The “cyclization by rOaAEP1b following the addition of N- and C-terminal AEP recognition sequences” value in the data set with rOaAEP1b [1] (22 h post addition of rOaAEP1b, MALDI MS, cyclic product confirmed by endoGlu-C digestion) is on record as “efficiently cyclized”. In addition, in the data set with rOaAEP1b [1] (rOaAEP1b), the cyclization efficiency was ~100%.
As for `NC(=O)CI` [iodoacetamide], the “effect of inhibitor on rOaAEP1b activity” value in the data set on rOaAEP1b [2] (iodoacetamide 1 mM, 4.4 μg ml^-1 total protein) is given as “inhibited”.
Take Ac-YVAD-CHO: the “effect of inhibitor on rOaAEP1b activity” value in the data set with rOaAEP1b [2] (Ac-YVAD-CHO 500 μM) was “poor inhibitor”.
As to `CC(C)CC(=O)N[C@H](C(=O)N[C@H](C(=O)N[C@@H](CC(C)C)[C@@H](O)CC(=O)N[C@@H](C)C(=O)N[C@@H](CC(C)C)[C@@H](O)CC(=O)O)C(C)C)C(C)C` [pepstatin A] (Isovaleryl-VV[Sta]A[Sta]-OH), the “effect of inhibitor on rOaAEP1b activity” value in the data set on rOaAEP1b [2] (pepstatin A 10 μM) is given as “not affected”.
Turning to `CC(C)C[C@H](NC(=O)[C@H]1O[C@@H]1C(=O)O)C(=O)NCCCCN=C(N)N` [E64], the “effect of inhibitor on rOaAEP1b activity” value in the data set on rOaAEP1b [2] (E64 250 μM) is “not affected”.

B1: kB1L31A: kB1 precursor with a Leu31Ala mutation (peptide, UniProt P56254 23-124, looked up, variant L31A)
pro-form: SELSDSHKTTLVNEIAEKMLQRKILDGVEATLVTDVAEKMFLRKMKAEAKTSETADQVFLKQLQLKGLPVCGETCVGGTCNTPGCTCSWPVCTRNGAPSLAA
modifications: pro-form
notes: kB1 precursor with a Leu31Ala mutation
As for B1, the “rOaAEP1b-mediated processing of modified kB1 and kB2 precursors over time” value in the data set on rOaAEP1b [1] (280 μM peptide, pH 5, room temperature, 1, 5 and 22 h, MALDI MS, three technical replicates) is “cyclized far more slowly than the wt precursor”.

B2: recombinant human legumain: recombinant human AEP (protein, UniProt Q99538 18-323, looked up)
Legumain: VPIDDPEDGGKHWVVIVAGSNGWYNYRHQADACHAYQIIHRNGIPDEQIVVMMYDDIAYSEDNPTPGIVINRPNGTDVYQGVPKDYTGEDVTPQNFLAVLRGDAEAVKGIGSGKVLKSGPQDHVFIYFTDHGSTGILVFPNEDLHVKDLNETIHYMYKHKMYRKMVFYIEACESGSMMNHLPDNINVYATTAANPRESSYACYYDEKRSTYLGDWYSVNWMEDSDVEDLTKETLHKQYHLVKSHTNTSHVMQYGNKTISTMKVMQFQGMKRKASSPVPLPPVTHLDLTPSPDVPLTIMKRKLMNTN
For the molecule B2, in data set [3], the “turnover rate (kcat)” value is ~8 s⁻¹.
